Assay results published in PubChem BioAssay (NCI).
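Test compounds were applied to cells in 96-well plates for 48 hours at 5 doses. Abbreviation: GI50, concentration required for 50% inhibition of growth. TGI: concentration producing complete growth inhibition.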

Legend:
Assay in all cases: DTP human tumour cell line panel, 48 h
OVCAR-3 ovarian = tested on: OVCAR-3 ovarian
A549 NSCLC = tested on: A549 NSCLC
LOX IMVI melanoma = tested on: LOX IMVI melanoma
RXF 393 renal = tested on: RXF 393 renal
HL-60(TB) leukemia = tested on: HL-60(TB) leukemia
HOP-92 NSCLC = tested on: HOP-92 NSCLC
COLO 205 colon = tested on: COLO 205 colon
OVCAR-4 ovarian = tested on: OVCAR-4 ovarian

Row | Compound | GI50 (OVCAR-3 ovarian) [µM] | TGI (OVCAR-3 ovarian) [µM] | GI50 (A549 NSCLC) [µM] | TGI (A549 NSCLC) [µM] | GI50 (LOX IMVI melanoma) [µM] | TGI (LOX IMVI melanoma) [µM] | GI50 (RXF 393 renal) [µM] | TGI (RXF 393 renal) [µM] | GI50 (HL-60(TB) leukemia) [µM] | TGI (HL-60(TB) leukemia) [µM] | GI50 (HOP-92 NSCLC) [µM] | TGI (HOP-92 NSCLC) [µM] | GI50 (COLO 205 colon) [µM] | TGI (COLO 205 colon) [µM] | GI50 (OVCAR-4 ovarian) [µM] | TGI (OVCAR-4 ovarian) [µM]
1 | N#CSCC1CC(O)(c2ccccc2)C(c2ccccc2)C(c2ccc(F)cc2)O1 (stereo unspecified) | 1.52 | 2.99 | 8.38 | 40.5 | 1.64 | 3.18 | 2.22 | 4.4 | 0.672 | 2.96 | 2.13 | 7.88 | 3.13 | 9.97 | 2.84 | 10.9
2 | COC[C@H]1OC(=O)c2coc3c2[C@@]1(C)C1=C(C3=O)[C@@H]2CCC(=O)[C@@]2(C)C[C@H]1OC(C)=O |  | > 78.1 |  | > 100 |  | 53.8 | 0.264 | 3.07 | 2.98 | 53.7 |  |  |  | > 31.6 | 18.6 | > 100
3 | Cc1cc(-c2nc3ccc(O)cc3s2)ccc1N | 39.3 | > 100 | 34.5 | > 100 | > 100 | > 100 | 30.5 | > 100 |  |  | > 100 | > 100 | > 100 | > 100 | 37.2 | > 100
4 | C#CC[C@H](c1nc2cc(Cl)ccc2c(=O)n1Nc1ccccc1)N(CCCN)C(=O)c1cccc(Cl)c1F | 0.242 | 1.19 | 0.255 | 1.87 | 0.325 | 1.84 | 0.284 | 1.37 | 0.13 | 0.605 | 0.179 | 1.65 | 0.0951 | 0.868 | 1.16 | 2.54
5 | Cn1c2ccccc2c2nnc(N/N=C/c3ccccn3)nc21 | 0.489 | > 33 | 0.461 | > 27.5 | 0.331 | 3.33 | 2.8 | > 42.3 | 0.222 | 3.85 | 0.413 | > 59.1 | 0.401 | 18.5 | 0.419 | > 58.9
6 | COc1ccc(C2=C(c3cn(C)c4ccccc34)C(=O)NC2=O)cc1OC | 7.57 | > 25 | 8.44 | > 25 | 8.12 | > 25 | 6.44 | > 25 | 6.27 | 17.2 | > 12.4 | > 25 | 5.57 | > 20.3 | 10.6 | > 25
7 | Cc1ccc2c(=O)[nH]sc2c1 |  | 43.5 |  | 43.1 |  | 32.9 |  | 28.6 |  | 30.8 |  |  |  | 16.7 |  | > 100
8 | C=C(CN1CCN(c2ccccc2F)CC1)c1ccc(C(=O)Nc2ccccc2N)cc1 | 2.14 | 7.82 | 3.52 | 35.4 | 1.53 | 24.4 | 0.702 | 7.08 | 0.353 | 2.87 | 0.611 | 5.55 | 2.67 | 11.1 | 5.01 | > 100
